Reference: article PMC12516379, “Rotamer-Controlled Self-Immolative Linkers Enable Tunable Release of Neurosteroid Oxime Prodrugs” (ACS Medicinal Chemistry Letters, 2025)

What was measured:
[1] = Stability in PBS at room temperature via HPLC (UV); type: physicochemical; conditions: phosphate-buffered saline (DPBS)
Method: (§1) Stability studies were conducted in PBS and acetate buffer utilizing high performance liquid chromatography for potential drug storage considerations. […]
(§2) All experiments were performed in duplicate and results are presented as the average of two experimental replicates.
(§3) 1.1 Aqueous Stability in PBS and Acetate Buffer via HPLC
(§4) Material and Instrumentation
(§5) HPLC grade acetonitrile (MeCN) […] HPLC grade water (H 2O), and formic acid (FA) were purchased from Fisher Scientific.
(§6) Puradisc 4 mm PTFE (0.45 μm) syringe filters from Cytiva. Gibco ® Dulbecco’s phosphate-buffered saline (DPBS 1X, no calcium, no magnesium, pH = 7.03) and acetate buffer (pH = 5.0, 10 mM) were purchased directly from Thermo Fisher Scientific and Cytiva, respectively.
(§7) Aqueous stability experiments were performed on an Agilent 1100 HPLC equipped with an Agilent G1315B diode array detector, an Agilent G1316A heated column compartment, and a Zorbax Eclipse XDB-C18 (4.6 x 150 mm, 5 μm) column.
(§8) Procedure for Aqueous Stability Experiments
(§9) Each sample was first weighed out in two separate 2.0 mL vials using an analytical balance.
(§10) Unless otherwise specified, the test compounds were then dissolved in the aqueous media (PBS or acetate buffer) at a standard concentration of 1 mg/mL. All mixtures were subsequently sonicated for approximately 30 sec. […]
(§11) min), precipitates observed in sample solutions were filtered with a PTFE syringe filter prior to analysis. Immediately after sample preparation, injection by the HPLC autosampler was performed, which was recorded as the initial time point (t = 0 min). Solutions were then kept in the autosampler at RT and reinjected at designated intervals without additional filtration or sample modification. Remaining prodrug was defined by the area under the curve (AUC) at 254 nm. Aqueous stability was ascertained by calculating the percentage of the parent compound remaining after each time point. Linear regression of the time (x-axis) vs. ln(%remaining) (y-axis) plot afforded the rate constant k (slope = -k). Pseudo first-order half-lives were then calculated by the following equation: t1/2 = 0.693/k.

[2] = Plasma stability assay at 37 °C via LC-MS/MS, human plasma; type: in vitro ADME; conditions: for half-life at 3 µM: human, plasma;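 for all read-outs here: prodrugs at 3 µM incubated in human plasma at 37 °C, intact prodrug quantified by LC-MS/MS over time, values are means of duplicate runs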
[3] = Stability in acetate buffer pH 5.0 at room temperature via HPLC (UV); type: physicochemical
Method: as §1, §2, §3, §4, §5, §6, §7, §8, §9, §10, §11

[4] = Aqueous solubility by visual inspection in acetate buffer (pH 5); conditions: sodium acetate buffer
Method: For the solubility assessment, acetate buffer (pH 5) was selected as the media of choice to ensure prodrug stability during analysis.
High aqueous solubility was determined by visual inspection of 5 mg solid material in 0.5 mL
sodium acetate buffer solution. This media was selected to ensure stability of prodrugs during
dissolution in 50 mg/mL aqueous media.

[5] = PBS stability assay at 37 °C via LC-MS/MS; type: physicochemical; conditions: for half-life at 3 µM / remaining at 2 h, 3 µM: phosphate-buffered saline (DPBS); for half-life at 3 µM: pH 7.03, PBS; for PBS, 37 °C %rem. at 2h (Table S23) / half-life at 3 µM / remaining at 2 h, 3 µM: 37 °C; for remaining at 2 h, 3 µM: pH 7.03, read-out: % Remaining @ 2h, PBS, 37 °C (Tables S25, S26)
Method: To address this, prodrug stability was further evaluated in human plasma at 37 °C using liquid chromatography–tandem mass spectrometry (LC-MS/MS). For direct comparison, a parallel screen was conducted in PBS under identical conditions (Table ). To prevent premature degradation prior to LC-MS/MS analysis, acetonitrile containing formic acid was used as a quenching solution to acidify and stabilize the prodrugs in vials. […] This limitation in detection, along with the need for a more uniform and broadly applicable assessment across all compounds, prompted us to monitor the formation of the parent oxime as an alternative readout.
Stability experiments in human plasma and PBS were performed via liquid chromatography-tandem mass spectrometry (LC-MS/MS) to determine and compare rate of cleavage of progesterone prodrugs as well as selected allopregnanolone prodrugs (3 µM) when incubated at 37 °C. All experiments were performed in duplicate and results are presented as the average of two experimental replicates.

[6] = pH 7.03, DPBS pH 7.03, RT, 1 mg/mL, HPLC 254 nm, read-out: t1/2 in PBS buffer at RT (Tables S1-S4) (converted)
[7] = pH 7.03, PBS, rt, read-out: t½: PBS, rt (Table S23) (converted)
[8] = 3 µM, LC-MS/MS, read-out: t1/2 in human plasma at 37 °C (Tables S10-S13, S18) (converted)
[9] = read-out: Plasma, 37 °C t½ (Table S23) (converted)
[10] = pH 5, acetate buffer pH 5.0, RT, 1 mg/mL, HPLC 254 nm, read-out: t1/2 in acetate buffer at RT (Tables S5-S8) (converted)
[11] = pH 5, acetate buffer pH 5.0, rt, read-out: t½: pH 5.0, rt (Table S23) (converted)
[12] = pH 5, aqueous buffer, thermodynamic from solid
[13] = 3 µM, LC-MS/MS, read-out: t1/2 in PBS at 37 °C (Tables S14-S17) (converted)
[14] = read-out: PBS, 37 °C t½ (Table S23) (converted)
[15] = read-out: t1/2 (h) PBS, 37 °C (Tables S25, S26) (converted)
[16] = pH 7.03, PBS, rt, HPLC (UV), read-out: Half-life (t½) PBS rt (converted)
[17] = LC-MS/MS, read-out: Half-life (t½) Plasma 37°C (converted)
[18] = pH 5, acetate buffer pH 5.0, rt, HPLC (UV), read-out: Half-life (t½) pH 5.0 rt (converted)
[19] = LC-MS/MS, read-out: Half-life (t½) PBS 37°C (converted)

Structure (SMILES) | half-life at 1 mg/mL [1, 6] | half-life at 1 mg/mL [1, 7] | Plasma, 37 °C %rem. at 2h (Table S23) [2] | half-life at 3 µM [2, 8] | half-life at 3 µM [2, 9] | half-life at 1 mg/mL [3, 10] | half-life at 1 mg/mL [3, 11] | solubility [4, 12] | PBS, 37 °C %rem. at 2h (Table S23) ([5]; PBS) | half-life at 3 µM [5, 13] | half-life at 3 µM [5, 14] | half-life at 3 µM [5, 15] | remaining at 2 h, 3 µM ([5]; PBS) | half-life at 1 mg/mL [1, 16] | half-life at 3 µM [2, 17] | half-life at 1 mg/mL [3, 18] | half-life at 3 µM [5, 19] | half-life at 1 mg/mL ([3]; pH 5, acetate buffer pH 5.0, RT, HPLC 254 nm, read-out: t1/2 in acetate buffer at RT) | solubility ([4]; pH 5) | Prodrug stability / self-immolation in buffer, in words ([5]; PBS)
CNCCN(CC(C)C)C(=O)O/N=C(\C)[C@H]1CC[C@H]2[C@@H]3CCC4=CC(=O)CC[C@]4(C)[C@H]3CC[C@]12C.O=C(O)C(F)(F)F [20f] | 50.7 ± 5.11 h | > 24 h | 95% | 4.78 h | 4.78 h | > 168 h | > 168 h | > 10000 µg/mL | 55% | 5.07 h | 5.07 h | 5.07 h | 55% | – | – | – | – | – | – | –
CNCCN(CCCN1CCOCC1)C(=O)O/N=C(\C)[C@H]1CC[C@H]2[C@@H]3CCC4=CC(=O)CC[C@]4(C)[C@H]3CC[C@]12C.O=C(O)C(F)(F)F [20i] | 31.2 ± 1.48 h | 31.2 h | 57% | 2.09 h | 2.09 h | > 168 h | > 168 h | > 10000 µg/mL | 77% | 5.45 h | 5.45 h | 5.45 h | 77% | – | – | – | – | – | – | –
CNCCN(CCn1ccnc1)C(=O)O/N=C(\C)[C@H]1CC[C@H]2[C@@H]3CCC4=CC(=O)CC[C@]4(C)[C@H]3CC[C@]12C [20k] | 47 ± 2.84 h | 47 h | 68% | 3.16 h | 3.16 h | > 168 h | > 168 h | > 10000 µg/mL | 70% | 5.99 h | 5.99 h | 5.99 h | 70% | – | – | – | – | – | – | –
C/C(=N\OC(=O)N(C)C[C@H]1CCCN1)[C@H]1CC[C@H]2[C@@H]3CCC4=CC(=O)CC[C@]4(C)[C@H]3CC[C@]12C.O=C(O)C(F)(F)F [20m] | 6.15 ± 0.02 h | 6.15 h | 2% | 0.35 h | 0.35 h | > 168 h | > 168 h | > 10000 µg/mL | 11% | 0.8 h | 0.8 h | – | – | – | – | – | – | – | – | –
C/C(=N\OC(=O)N(C)C[C@@H]1CCN1)[C@H]1CC[C@H]2[C@@H]3CCC4=CC(=O)CC[C@]4(C)[C@H]3CC[C@]12C [20o] | 6.3 ± 0.09 h | 6.3 h | 1% | 0.29 h | 0.29 h | > 168 h | > 168 h | > 10000 µg/mL | 14% | 0.9 h | 0.9 h | – | – | 6.3 h | 0.29 h | > 168 h | 0.9 h | – | – | –
C/C(=N\OC(=O)N(C)C[C@@H]1CC2(CC2)CN1)[C@H]1CC[C@H]2[C@@H]3CCC4=CC(=O)CC[C@]4(C)[C@H]3CC[C@]12C [20q] | 4.35 h | 4.35 h | 15% | 0.65 h | 0.65 h | > 168 h | > 168 h | > 10000 µg/mL | 5% | 0.7 h | 0.7 h | – | – | 4.35 h | 0.64 h | > 168 h | 0.7 h | – | – | –
C/C(=N\OC(=O)N(C)C[C@@H]1C[C@H](N(C)C)CN1)[C@H]1CC[C@H]2[C@@H]3CCC4=CC(=O)CC[C@]4(C)[C@H]3CC[C@]12C [20u] | 7.53 ± 1.3 h | 7.53 h | 17% | 0.74 h | 0.74 h | 72 h | 72 h | > 10000 µg/mL | – | 1.08 h | 1.08 h | – | – | 7.53 h | 0.73 h | 72 h | 1.08 h | – | – | –
C/C(=N\OC(=O)N(CCN(C)C)CCN(C)C)[C@H]1CC[C@H]2[C@@H]3CCC4=CC(=O)CC[C@]4(C)[C@H]3CC[C@]12C [20y] | 0.017 ± 0.002 h | 0.02 h | 84% | 8.88 h | 8.88 h | – | – | – | 35% | 1.87 h | 1.87 h | – | – | – | – | – | – | 0.1322 ± 0.00117 h | < 10000 µg/mL | hydrolytic instability
C/C(=N\OC(=O)N(CCO)CCNCCO)[C@H]1CC[C@H]2[C@@H]3CCC4=CC(=O)CC[C@]4(C)[C@H]3CC[C@]12C.Cl [20z] | 28.8 ± 3.16 h | 28.8 h | 71% | 2.3 h | 2.3 h | > 168 h | > 168 h | > 10000 µg/mL | 78% | 6.27 h | 6.27 h | – | – | – | – | – | – | – | – | –
